# Experimental data taken from ChEMBL document CHEMBL5647692, “The novel dual PI3K/mTOR inhibitor NVP-BGT226 displays cytotoxic activity in both normoxic and hypoxic hepatocarcinoma cells” (Oncotarget, 2015).
# Activity calls are given as the source filed them. The rule behind the calls is not given here. Peptide text beside a SMILES is read from it. * marks the point of attachment. Cbz = O=C(OCc1ccccc1)*; CH2F = FC*
# Experiments:
# SNU-475 [1] = experiment: Induction of autophagy in human SNU-475 cells assessed as reduction in cytotoxicity at 10 to 25 uM incubated for 24 hrs by MTT assay; assay type: functional, cell-based; settings: dose 10-25 µM
# Mahlavu [2] = experiment: Induction of autophagy in human Mahlavu cells assessed as reduction in cytotoxicity at 10 to 25 uM incubated for 24 hrs by MTT assay; assay type: functional, cell-based; settings: dose 10-25 µM
# Mahlavu [3] = experiment: Cytotoxicity against human Mahlavu cells assessed as reduction in cell viability at 10 uM incubated for 24 hrs under normoxia condition by MTT assay; assay type: functional, cell-based
# SNU-475 [4] = experiment: Cytotoxicity against human SNU-475 cells assessed as reduction in cell viability at 10 uM incubated for 24 hrs under hypoxia condition by MTT assay; assay type: functional, cell-based
# Mahlavu [5] = experiment: Cytotoxicity against human Mahlavu cells assessed as reduction in cell viability at 25 uM incubated for 24 hrs under hypoxia condition by MTT assay; assay type: functional, cell-based
# SNU-475 [6] = experiment: Cytotoxicity against human SNU-475 cells assessed as reduction in cell viability at 25 uM incubated for 24 hrs under hypoxia condition by MTT assay; assay type: functional, cell-based
# Mahlavu [7] = experiment: Cytotoxicity against human Mahlavu cells assessed as reduction in cell viability at 10 uM incubated for 24 hrs in presence of BGT226 under hypoxia condition by MTT assay; assay type: functional, cell-based
# SNU-475 [8] = experiment: Cytotoxicity against human SNU-475 cells assessed as reduction in cell viability at 10 uM incubated for 24 hrs in presence of BGT226 under hypoxia condition by MTT assay; assay type: functional, cell-based
# Mahlavu [9] = experiment: Cytotoxicity against human Mahlavu cells assessed as reduction in cell viability at 25 uM incubated for 24 hrs in presence of BGT226 under hypoxia condition by MTT assay; assay type: functional, cell-based
# SNU-475 [10] = experiment: Cytotoxicity against human SNU-475 cells assessed as reduction in cell viability at 25 uM incubated for 24 hrs in presence of BGT226 under hypoxia condition by MTT assay; assay type: functional, cell-based
# Hep 3B2 [11] = experiment: Cytotoxicity against human Hep3B cells assessed as reduction in cell viability at 10 uM incubated for 24 hrs by MTT assay; assay type: functional, cell-based
# HepG2 = experiment: Cytotoxicity against human HepG2 cells assessed as reduction in cell viability at 10 uM incubated for 24 hrs by MTT assay; assay type: functional, cell-based
# Mahlavu [12] = experiment: Cytotoxicity against human Mahlavu cells assessed as reduction in cell growth at 10 uM incubated for 24 hrs under hypoxia condition by MTT assay; assay type: functional, cell-based
# Hep 3B2 [13] = experiment: Cytotoxicity against human Hep3B cells assessed as reduction in cell growth at 10 uM incubated for 24 hrs under hypoxia condition by MTT assay; assay type: functional, cell-based
# Mahlavu [14] = experiment: Induction of apoptosis in human Mahlavu cells assessed as viable cells at 75 uM incubated for 24 hrs by Annexin-V/7-AAD staining based muse cell analyzer method (reference value: 90.52 %); assay type: functional; settings: read-out: Activity
# Mahlavu [15] = experiment: Induction of apoptosis in human Mahlavu cells assessed as early apoptotic cells at 75 uM incubated for 24 hrs by Annexin-V/7-AAD staining based muse cell analyzer method (reference value: 6.57 %); assay type: functional
# Mahlavu [16] = experiment: Induction of apoptosis in human Mahlavu cells assessed as late apoptotic cells at 75 uM incubated for 24 hrs by Annexin-V/7-AAD staining based muse cell analyzer method (reference value: 2.24 %); assay type: functional
# Mahlavu [17] = experiment: Induction of apoptosis in human Mahlavu cells assessed as necrotic cells at 75 uM incubated for 24 hrs by Annexin-V/7-AAD staining based muse cell analyzer method (reference value: 0.67 %); assay type: functional
# SNU-449 [18] = experiment: Induction of apoptosis in human SNU-449 cells assessed as viable cells at 75 uM incubated for 24 hrs by Annexin-V/7-AAD staining based muse cell analyzer method (reference value: 90.07 %); assay type: functional; settings: read-out: Activity
# SNU-449 [19] = experiment: Induction of apoptosis in human SNU-449 cells assessed as early apoptotic cells at 75 uM incubated for 24 hrs by Annexin-V/7-AAD staining based muse cell analyzer method (reference value: 3.95 %); assay type: functional
# SNU-449 [20] = experiment: Induction of apoptosis in human SNU-449 cells assessed as late apoptotic cells at 75 uM incubated for 24 hrs by Annexin-V/7-AAD staining based muse cell analyzer method (reference value: 5.03 %); assay type: functional
# SNU-449 [21] = experiment: Induction of apoptosis in human SNU-449 cells assessed as necrotic cells at 75 uM incubated for 24 hrs by Annexin-V/7-AAD staining based muse cell analyzer method (reference value: 0.95 %); assay type: functional
structure (smiles),measurement,setting,value
CCN(CC)CCCC(C)Nc1ccnc2cc(Cl)ccc12 (configuration not stated),Activity,SNU-475 [1],Active
same,Activity,Mahlavu [2],Active
same,Activity,Mahlavu [3],Active
same,Activity,SNU-475 [4],Active
same,Activity,Mahlavu [5],Active
same,Activity,SNU-475 [6],Active
same,Activity,Mahlavu [7],Active
same,Activity,SNU-475 [8],Active
same,Activity,Mahlavu [9],Active
same,Activity,SNU-475 [10],Active
Cn1cnc(N)c2ncnc1-2,Activity,Hep 3B2 [11],inactive
same,Activity,HepG2,inactive
same,Activity,Mahlavu [12],inactive
same,Activity,Hep 3B2 [13],inactive
COC(=O)C[C@H](NC(=O)[C@H](C)NC(=O)[C@@H](NC(=O)OCc1ccccc1)C(C)C)C(=O)CF (Cbz-Val-Ala-Asp(OMe)-CH2F),viability at 75 µM,Mahlavu [14],89.7%
same,Activity,Mahlavu [15],5%
same,Activity,Mahlavu [16],3.78%
same,Activity,Mahlavu [17],1.52%
same,viability at 75 µM,SNU-449 [18],89.5%
same,Activity,SNU-449 [19],4.6%
same,Activity,SNU-449 [20],5.35%
same,Activity,SNU-449 [21],0.53%
